In patent publication US7148380B2, “Bio-energy muscle relaxants” (priority 2000, dated 2006):
Several values for one entry are separate records, joined by “and”; a condition that tells them apart may be missing. Equal entries are not always repeated. Where two headings read alike, the source gives them in different places.

Experiments:
[1] = test system: isolated colon tissues from guinea pigs; experiment: Isolated colon smooth muscle contraction induced by BaCl2; set-up: species or system guinea pig
Source text: To investigate this effect, 14 guinea pigs (provided by the Center of Experimental Animals, First Military Medical University, Guangzhou, China, certificate No. 99A047) with body weight of 240±20 g were used for the study. Following sacrifice of the animal by cervical dislocation, the colon was isolated within Botting solution, a segment of the colon in 2 cm length was taken to mount on the equipment—one end connected to a force transducer, the other end fixed at the bottom of the organ water-bath (DC-001 Organ Bath, made in Nanjin, China) containing oxygenated nutritious solution at 37° C.
Group “t” test was then made. Significance is considered to be established when P<0.05
The animals were divided as test group and control (placebo) group.
Where Fc is force of the smooth muscle contraction.
Paired group “t” test was made to compare contraction force after BDM and distilled water to determine whether there is a significant difference between the two groups.

[2] = test system: drug-induced asthma in guinea pig; experiment: Asthmatic latent period / drug-induced asthma in guinea pig (acetylcholine + histamine inhalation); type: in vivo
Description: Sensitive animals were chosen by aerosolized inhalation of asthma-inducing agents—a mixed solution of 2% acetylcholine with 0.1% histamine for 15 sec., inducing an asthmatic attack with severe difficulty in respiration and finally resulting in the animal body turned down. The time from beginning of the inhalation to animal turned down was recorded as an index named “turned down time” or asthmatic latent period. Those animals with turned down time less than 120 s. were selected for the study next day. […] Then the latent period was recorded for each of the animals.
(1) Screening animals: animal was put in a glass container, a mixed solution of 2% acetylcholine and 0.1% histamine was nebulized with a pressure of 400 mmHg and inhaled by the animals for 15 sec. Following the end of the inhalation, the time between beginning of the inhalation and the animal turned down due to bronchial spasm and dyspnea was recorded as asthmatic latent period. Those animals with a latent period beyond 120 s. were excluded, and those with a latent period less than 120 s were selected for study the next day.
(4) Measuring: Repeat the inhalation at 30 min, 4 h, and 24 h after administration of the drugs respectively. Asthmatic latent period was recorded, 6 minutes were taken as the maximum, and values beyond 6 min were counted as 6 min.
(5) Data analysis: Values were expressed as mean±sd, and paired for “t” and chi-square tests. Significance was considered to be established when p<0.05.

[3] = test system: hypertension induced by aramine; experiment: Aramine-induced hypertension, preventive test; type: in vivo, SD rats
Description: Eighteen (18) SD rats (provided by the Center of Experimental Animals, First Military Medical University, Guang Zhou, China, Certificate No. 99A046) with body weight of 200–250 g were used for the study. The animal was anesthetized with urethane (1.4 g/kg, I.P.), then the main cervical artery was exposed and cannulated, blood pressure was monitored during the experiment. After a 30-minute stabilization period after the operation, normal blood pressure curves were recorded.

[4] = test system: convulsion induced by strychnine; type: in vivo, NIH mice; conditions: for Convulsion / The latent period / Convulsion-Death time / Death: n=12; for The latent period / Convulsion-Death time: mean±SD; for Convulsion-Death time: P<0.01 vs control
Description: To investigate the effect, 36 mice (provided by the Center of Experimental Animals, Provincial Health Department, Guangdong, China, Certificate No. 99A030) were used for the study, the animals were grouped as placebo, preventing, and treatment groups. Muscle convulsion was induced with injection of strychnine (1.5 mg/kg I.P., injection product of 2 mg/ml, He Feng Pharmaceutical Co., Shanghai, China, Lot. No. 990701), the beginning and lasting time of the convulsion were recorded.
Half male and female healthy NIH mice with body weight of 20±2 g were selected for the study. The animals were randomly divided into three groups as protective, curative, and control (saline). […] In the control group, saline (20 ml/kg, I.P.) was administered 0.5 h before the strychnine. Immediately following the injection of strychnine, convulsion latent period and the time from beginning of convulsion to death of the animal were recorded. […] (see Table 7).

[5] = 10 ml/kg I.P. (BDM 0.2M, aminophylline 1.25%), mean±sd
[6] = curative: BDM immediately after strychnine
[7] = preventive: BDM 0.5 h prior to strychnine

With CC(=O)C(C)=NO [BDM, 2,3-butanedione monoxime] as the compound, how does the “Contraction force, After” value ([1]; BaCl2 0.67 g/L, 10 min after BDM 0.2M, 20 ml/L nutritious sol., single preparations) read?
The value was 1.70 g and 1.35 g and 1.45 g and 1.75 g and 2.20 g.

And the “Contraction force, Before” value ([1]; BaCl2 0.67 g/L, before BDM, single colon preparations of the test group)?
Its value is 2.35 g and 2.30 g and 2.45 g and 2.70 g and 2.90 g.

And the “Contraction Rate” value ([1]; force after / before BDM 0.2M, 20 ml/L, single preparations)?
The value was 72.3% and 58.7% and 61.7% and 76.1% and 69.4% and 64.8% and 75.9%.

What about the “Asthamatic Latent Period, 4 hours after administration” value [2, 5] of the same compound?
The value was 99.2 ± 42.1 s.

What about the “Asthamatic Latent Period, 24 hours after administration” value [2, 5] of the same compound?
Its value is 81.8 ± 11.0 s.

And the “Incidence of asthmatic spasm” value ([2]; 30 min after administration, down from 100%, not significant)?
Its value is 60%.

What about the “Asthamatic Latent Period, before administration” value ([2]; baseline before drug, 10 ml/kg I.P. (BDM 0.2M, aminophylline 1.25%), mean±sd) of the same compound?
The value was 70.4 ± 21.1 s.

And the “Effect on the latent period” value ([2]; four and 24 h after administration)?
Its value is “no significant effect”.

And the “Diastolic pressure 2 minutes after BDM administration” value ([3]; BDM 0.2 M, 10 ml/kg, I.P.)?
The value was 39.7 ± 6.4^★★ mmHg.

What about the “Diastolic pressure 5 minutes after BDM administration” value ([3]; BDM 0.2 M, 10 ml/kg, I.P.) of the same compound?
The value was 39.0 ± 8.7^★★ mmHg.

What about the “Diastolic pressure 10 minutes after BDM administration” value ([3]; BDM 0.2 M, 10 ml/kg, I.P.) of the same compound?
The value was 43.0 ± 8.5^★★ mmHg.

And the “Systolic pressure 2 minutes after BDM administration” value ([3]; BDM 0.2 M, 10 ml/kg, I.P.)?
Its value is 88.0 ± 5.2^★★ mmHg.

And the “Systolic pressure 5 minutes after BDM administration” value ([3]; BDM 0.2 M, 10 ml/kg, I.P.)?
The value was 84.0 ± 6.7^★★ mmHg.

What about the “Systolic pressure 10 minutes after BDM administration” value ([3]; BDM 0.2 M, 10 ml/kg, I.P.) of the same compound?
The value was 88.2 ± 7.7^★★ mmHg.

And the “Diastolic pressure 2 minutes after aramine administration” value ([3]; BDM given before aramine)?
Its value is 76.2 ± 21.5^★★ mmHg.

What about the “Diastolic pressure 5 minutes after aramine administration” value ([3]; BDM given before aramine) of the same compound?
The value was 76.5 ± 11.9^★★ mmHg.

What about the “Diastolic pressure 10 minutes after aramine administration” value ([3]; BDM given before aramine) of the same compound?
Its value is 77.0 ± 22.4^★★ mmHg.

And the “Systolic pressure 5 minutes after aramine administration” value ([3]; BDM given before aramine)?
Its value is 127.5 ± 16.1^★★ mmHg.

What about the “Systolic pressure 10 minutes after aramine administration” value ([3]; BDM given before aramine) of the same compound?
Its value is 127.7 ± 17.3^★★ mmHg.

What about the “Systolic pressure 2 minutes after aramine administration” value ([3]; BDM given before aramine 30 μg/ml, 0.4 ml/min I.V.) of the same compound?
The value was 126.3 ± 16.1^★★ mmHg.

And the “Diastolic pressure, Blood Pressure before” value ([3]; baseline, mean±SD, n=6–7)?
Its value is 68.7 ± 8.8 mmHg.

What about the “Systolic pressure, Blood Pressure before” value ([3]; baseline, mean±SD, n=6–7) of the same compound?
Its value is 117.3 ± 3.2 mmHg.

And the “Diastolic blood pressure following aramine administration in BDM group” value ([3]; control about 120)?
Its value is about 75 mmHg.

What about the “Systolic blood pressure following aramine administration in BDM group” value ([3]; control about 185) of the same compound?
Its value is “about 125 mmHg”.

What about the “Diastolic blood pressure after administration of BDM” value ([3]; down from 68, approximately) of the same compound?
The value was about 40 mmHg.

And the “Systolic blood pressure after administration of BDM” value ([3]; down from 117, approximately)?
Its value is about 84 mmHg.

What about the Convulsion ([4]; curative: BDM 0.2M, 20 ml/kg I.P. immediately after strychnine 1.5 mg/kg I.P.) of the same compound?
Its Convulsion is 100%.

What about the The latent period [4, 6] of the same compound?
Its The latent period is 134.2 ± 31.5 s.

And the Convulsion-Death time [4, 6]?
Its Convulsion-Death time is 538.3±169.3 s and 538.3 ± 169.3^★★ s.

What about the Death [4, 6] of the same compound?
The Death was 100%.

What about the “Behaviour of the animals after administration of BDM” value ([4]; mice, BDM 0.2M, 20 ml/kg, I.P.) of the same compound?
Its value is “reducing activities, difficulties in action and toddling”.

And the Convulsion ([4]; preventive: BDM 0.2M, 20 ml/kg I.P. 0.5 h prior to strychnine 1.5 mg/kg I.P.)?
The Convulsion was 100%.

And the The latent period [4, 7]?
The The latent period was 183.8 ± 32.6 s.

What about the Convulsion-Death time [4, 7] of the same compound?
The Convulsion-Death time was 496.3±285.3 s and 496.3 ± 285.3^★★ s.

And the Death [4, 7]?
Its Death is 100%.
